Reference: ChEMBL document CHEMBL1201862, “PubChem BioAssay data set” (2004)
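1) Cells in 96-well plates. 2) Compound, 48 h, 5 concentrations. 3) Linear interpolation between surrounding doses. 4) Unreached endpoint = highest concentration. Abbreviation: GI50, concentration required for 50% inhibition of growth.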 Activity calls are given as the source filed them. Cut-off read from the data, not from the text of the source: active = GI50 up to about 1.1 µM and inactive = higher.

Experiments:
Assay in all cases: DTP human tumour cell line panel, 48 h
PC-3 = tested on: PC-3
CCRF-CEM = tested on: CCRF-CEM
U-251 = tested on: U-251
NCI-H226 = tested on: NCI-H226
HCT-15 = tested on: HCT-15
SF-295 = tested on: SF-295
NCI-H460 = tested on: NCI-H460
SW-620 = tested on: SW-620
IGROV-1 = tested on: IGROV-1
T47D = tested on: T47D
COLO 205 = tested on: COLO 205
SF-268 = tested on: SF-268
HL-60 = tested on: HL-60
RPMI-8226 = tested on: RPMI-8226
A498 = tested on: A498
Malme-3M = tested on: Malme-3M
SK-MEL-28 = tested on: SK-MEL-28
ACHN = tested on: ACHN
MDA-MB-435 = tested on: MDA-MB-435
SN12C = tested on: SN12C

CS(=O)(=O)Nc1ccc(Nc2c3ccccc3nc3ccccc23)cc1
GI50 (PC-3): 2.62 µM (inactive)
GI50 (CCRF-CEM): 0.459 µM (active)
GI50 (U-251): 1.74 µM (inactive)
GI50 (NCI-H226): 1.04 µM (active)
GI50 (HCT-15): 2.31 µM
GI50 (SF-295): 1.66 µM (inactive)
GI50 (NCI-H460): 0.112 µM (active)
GI50 (SW-620): 1.11 µM (active)
GI50 (IGROV-1): 2.09 µM (inactive)
GI50 (T47D): 2.41 µM (inactive)
GI50 (COLO 205): 1.69 µM (inactive)
GI50 (SF-268): 2.78 µM (inactive)
GI50 (HL-60): 0.389 µM (active)
GI50 (RPMI-8226): 2.04 µM (inactive)
GI50 (A498): 3.21 µM (inactive)
GI50 (Malme-3M): 2.15 µM (inactive)
GI50 (SK-MEL-28): 4.75 µM (inactive)
GI50 (ACHN): 0.381 µM (active)
GI50 (MDA-MB-435): 7.87 µM (inactive)
GI50 (SN12C): 0.714 µM (active)

N#Cc1c(-c2ccc([N+](=O)[O-])cc2)cc(-c2ccc(Nc3ccnc4cc(Cl)ccc34)cc2)nc1N
GI50 (PC-3): 6.49 µM (inactive)
GI50 (CCRF-CEM): 1.11 µM (active)
GI50 (U-251): 1.84 µM (inactive)
GI50 (NCI-H226): > 72.1 µM (inactive)
GI50 (HCT-15): 2.76 µM
GI50 (SF-295): 19 µM (inactive)
GI50 (NCI-H460): 7.24 µM (inactive)
GI50 (SW-620): > 21.7 µM (inactive)
GI50 (IGROV-1): 3.22 µM (inactive)
GI50 (T47D): 4.81 µM (inactive)
GI50 (COLO 205): 25.5 µM (inactive)
GI50 (SF-268): 14.9 µM (inactive)
GI50 (HL-60): 12.4 µM (inactive)
GI50 (RPMI-8226): 5.02 µM (inactive)
GI50 (A498): 26.2 µM (inactive)
GI50 (Malme-3M): 21.5 µM (inactive)
GI50 (SK-MEL-28): 6.25 µM (inactive)
GI50 (ACHN): 30.5 µM (inactive)
GI50 (MDA-MB-435): 3.35 µM (inactive)
GI50 (SN12C): 4.81 µM (inactive)

Cc1c2ccccc2c(C2C3C(=O)N(c4cccc5ccccc45)C(=O)C3ON2Cc2ccc(CC(N)=O)cc2)c2ccccc12 (stereo unspecified)
GI50 (PC-3): 17.4 µM (inactive)
GI50 (CCRF-CEM): 14.7 µM (inactive)
GI50 (U-251): 19.8 µM (inactive)
GI50 (NCI-H226): 13.4 µM (inactive)
GI50 (HCT-15): 18.4 µM
GI50 (SF-295): 16.3 µM (inactive)
GI50 (NCI-H460): 13.5 µM (inactive)
GI50 (SW-620): 20.3 µM (inactive)
GI50 (IGROV-1): 17.7 µM (inactive)
GI50 (T47D): 15 µM (inactive)
GI50 (COLO 205): 7.78 µM (inactive)
GI50 (SF-268): 23.6 µM (inactive)
GI50 (HL-60): 16.1 µM (inactive)
GI50 (A498): 35.6 µM (inactive)
GI50 (Malme-3M): 28.6 µM (inactive)
GI50 (SK-MEL-28): > 50 µM (inactive)
GI50 (ACHN): 18.5 µM (inactive)
GI50 (MDA-MB-435): 17.9 µM (inactive)
GI50 (SN12C): 15.3 µM (inactive)

CCCCNC(=S)Nc1nc(C(=O)NNC(=O)c2ccccc2)cs1
GI50 (PC-3): 15.5 µM (inactive)
GI50 (CCRF-CEM): 27.9 µM (inactive)
GI50 (U-251): 11.8 µM (inactive)
GI50 (NCI-H226): 21.3 µM (inactive)
GI50 (HCT-15): 6 µM
GI50 (SF-295): 15.2 µM (inactive)
GI50 (SW-620): 14 µM (inactive)
GI50 (IGROV-1): 13.8 µM (inactive)
GI50 (T47D): 11.5 µM (inactive)
GI50 (COLO 205): 13.3 µM (inactive)
GI50 (SF-268): 25.9 µM (inactive)
GI50 (HL-60): 96.6 µM (inactive)
GI50 (RPMI-8226): 26.1 µM (inactive)
GI50 (A498): 30.3 µM (inactive)
GI50 (Malme-3M): 18.7 µM (inactive)
GI50 (ACHN): 15.9 µM (inactive)
GI50 (MDA-MB-435): 19.7 µM (inactive)
GI50 (SN12C): 17.3 µM (inactive)

CC[C@H](C)c1occ2c(O)c(C(=O)O)c(=O)cc-2c1C
GI50 (PC-3): 33.5 µM (inactive)
GI50 (CCRF-CEM): 17.5 µM (inactive)
GI50 (U-251): 28.5 µM (inactive)
GI50 (NCI-H226): 33.8 µM (inactive)
GI50 (HCT-15): 16.7 µM
GI50 (SF-295): 31.3 µM (inactive)
GI50 (NCI-H460): 24.3 µM (inactive)
GI50 (SW-620): 20.4 µM (inactive)
GI50 (IGROV-1): 18.6 µM (inactive)
GI50 (T47D): 20.7 µM (inactive)
GI50 (COLO 205): 19.3 µM (inactive)
GI50 (SF-268): 33.7 µM (inactive)
GI50 (HL-60): 12.7 µM (inactive)
GI50 (RPMI-8226): 30.7 µM (inactive)
GI50 (A498): 29 µM (inactive)
GI50 (Malme-3M): 17.5 µM (inactive)
GI50 (ACHN): 26.7 µM (inactive)
GI50 (MDA-MB-435): 22.1 µM (inactive)
GI50 (SN12C): 22.5 µM (inactive)

O=C(O)CCCc1ccc2c(c1)CC1(C2)Cc2cc3c(cc2C1)CCCC3
GI50 (PC-3): 24.6 µM (inactive)
GI50 (CCRF-CEM): 11.6 µM (inactive)
GI50 (U-251): 16.7 µM (inactive)
GI50 (NCI-H226): 31.6 µM (inactive)
GI50 (HCT-15): 8.3 µM
GI50 (SF-295): 23.9 µM (inactive)
GI50 (IGROV-1): 20 µM (inactive)
GI50 (T47D): 35.6 µM (inactive)
GI50 (COLO 205): 19.9 µM (inactive)
GI50 (HL-60): 11.6 µM (inactive)
GI50 (RPMI-8226): 28 µM (inactive)
GI50 (A498): 17.1 µM (inactive)
GI50 (Malme-3M): 22 µM (inactive)
GI50 (ACHN): 17 µM (inactive)
GI50 (MDA-MB-435): 17.3 µM (inactive)
GI50 (SN12C): 22.1 µM (inactive)

COc1cccc(-c2cc(=O)c3ccc(C)nc3[nH]2)c1
GI50 (PC-3): 0.0361 µM (active)
GI50 (CCRF-CEM): 0.0459 µM (active)
GI50 (U-251): 0.0508 µM (active)
GI50 (NCI-H226): 0.0434 µM (active)
GI50 (HCT-15): 0.0402 µM
GI50 (SF-295): 0.0371 µM (active)
GI50 (NCI-H460): 0.0451 µM (active)
GI50 (SW-620): 0.0383 µM (active)
GI50 (IGROV-1): 0.0461 µM (active)
GI50 (T47D): 57.9 µM (inactive)
GI50 (COLO 205): 0.0277 µM (active)
GI50 (SF-268): 0.0671 µM (active)
GI50 (HL-60): 0.0212 µM (active)
GI50 (RPMI-8226): 0.034 µM (active)
GI50 (A498): 0.0405 µM (active)
GI50 (Malme-3M): 0.0403 µM (active)
GI50 (ACHN): 0.0538 µM (active)
GI50 (MDA-MB-435): < 0.01 µM (active)
GI50 (SN12C): 0.122 µM (active)
